Assay results taken from patent publication US8669256B2, “Substituted thieno[2,3-b]pyrazine compounds as modulators of B-Raf kinase activity” (Merck Sharp & Dohme B.V., priority 2010, dated 2014).
Read-outs that look alike come from different tables or passages of the source.

Assays:
[1] = biological target: T1, GST-tagged human recombinant active B-Raf (Δ1-415) (Homo sapiens, UniProt P15056); test: B-Raf kinase activity, IMAP coupled assay (B-Raf/MEK1/ERK2, fluorescence polarization); type: biochemical
T1 construct: GST; purchased Upstate/Millipore
Text: (§1) In another assay the B-Raf kinase activity can be determined by using an IMAP assay (Immobilized Metal Assay for Phosphochemicals-based coupled assay). IMAP is a homogeneous fluorescence polarization (FP) assay based on affinity capture of phosphorylated peptide substrates. IMAP uses fluorescein-labeled peptide substrates that, upon phosphorylation by a protein kinase, bind to so called IMAP nanoparticles, which are derivatized with trivalent metal complexes. Such binding causes a change in the rate of the molecular motion of the peptide, and results in an increase in the FP value observed for the fluorescein label attached to the substrate peptide. In such an assay, B-Raf phosphorylates unactive MEK1. The phosphorylated MEK1 is capable of phosphorylating ERK2, which subsequently phosphorylates the fluorescein-labeled peptide substrate.
Determination of B-Raf Kinase Activity using an IMAP Assay
as §1, with “Inhibition of” for “In another assay the”, “was measured” for “can be determined by”, “Immobilized” for “IMAP assay (Immobilized”, “assay (IMAP).” for “assay).”, “this” for “such an”
Enzymes, substrate and ATP were diluted at all steps in Kinase Reaction buffer (10 mM Tris-HCl, 10 mM MgCl2, 0.01% Tween-20, 0.05% NaN3 pH 7.2, 1 mM DTT). The final volume at the kinase reaction step of the assay in the 384-well plate was 20 μl. The concentrations within brackets are final concentrations in the assay. B-Raf (GST-tagged human recombinant active B-Raf (Δ1-415), Upstate/Millipore; 0.2 U/ml) was pre-incubated with compounds or DMSO (1% final concentration) for 60 minutes at room temperature in the dark. Thereafter, MEK 1 (GST-tagged human recombinant unactive MEK1 (full-length); 64 ng/ml), ERK2 (GST-tagged human recombinant unactive ERK2 (full-length); 600 ng/ml), peptide substrate (Erktide, Molecular Devices; 50 nM) and ATP (50 μM) were added to the wells and the mix was incubated for another 60 minutes at 30° C. in the dark. Then, IMAP progressive binding buffer (75% 1× buffer A, 25% 1× buffer B, 1:900 Progressive Binding Reagent; Molecular Devices) was added followed by an incubation step of 60 minutes at room temperature in the dark. Finally, the FP signal was read on an Envision Multilabel reader (Perkin Elmer).

[2] = test system: phosphorylation of ERK1/2 in A375 cells containing mutant B-Raf (V600E); test: Phospho-ERK FACE assay in A375 (B-Raf mutated) melanoma cell line; type: cell-based; details: Homo sapiens, A-375; A375 cells, 2 hours incubation, between 1 μM and 100 nM (6<pIC50<7); read-out: IC50, A375 melanoma phospho-ERK assay
Description: The B-Raf activity can also be determined in a B-Raf mutated melanoma cell line, such as the A375 cell line. Inhibition of phosphorylation of ERK1/2 can be measured using a Fast Activated Cell-based ELISA (FACE) from Active Motif (Carlsbad, U.S.A., CA). E.g. A375 cells, which are cells containing a mutant form of B-Raf (V600E) and thus contain high levels of phosphorylated ERK, can be incubated with Raf inhibitors. Then cells can be incubated with anti-phospho-ERK antibody and subsequently with horse radish peroxidase (HRP)-labeled secondary antibody. Finally, chemiluminescence reagents can be added, which react with HRP, to give a luminescence signal.
Determination of B-Raf Activity Using a A375 (B-Raf mutated) Melanoma Cell Line (Phospho-ERK FACE Assay)
Inhibition of phosphorylation of ERK1/2 was measured using a Fast Activated Cell-based ELISA (FACE) from Active Motif (Carlsbad, U.S.A., CA). Briefly, A375 cells, which are cells containing a mutant form of B-Raf (V600E) and thus contain high levels of phosphorylated ERK, were incubated for 2 hours with Raf inhibitors. Then, cells were fixed with paraformaldehyde, washed and following quenching and blocking, incubated with anti-phospho-ERK antibody, and as a control, on a separate plate, with ERK antibody. After washing and removal of the primary antibodies, the fixed cells were incubated with horse radish peroxidase (HRP)-labeled secondary antibody. Finally, chemiluminescence reagents were added, which react with HRP, to give a luminescence signal.
Detailed protocol: A375 cells were cultured in DMEM/F12 (Dulbecco's Modified Eagle Medium Nutrient Mixture F-12) (Invitrogen), supplemented with 10% fetal bovine serum (FBS) (Biowhittaker), 100 U/ml penicillin G and 100 μg/ml streptomycin (Gibco). For the phospho ERK assay, cells were seeded at a density of 15,000 cells/well in 100 μl culture medium in 96-well plates and incubated in a humidified atmosphere at 5% CO2 and 37° C. After 24 hours, cells were washed with DMEM/F12 supplemented with 0.1% FBS (assay medium 120 μl of assay medium was added and the plates were incubated overnight in a humidified atmosphere at 5% CO2 and 37° C. The next day, the assay medium was removed and compounds diluted in assay medium were added to the cells. Final DMSO concentration in the assay was 1%. After 2 hours incubation, cells were fixed by replacing the assay medium with 100 μl of 4% formaldehyde (Bio-Connect, Huissen, The Netherlands) in PBS. After 20 minutes of incubation at room temperature, cells were washed three times with 200 μl wash buffer (0.1% (vol/vol) Triton X-100 in PBS from the FACE kit) followed by an incubation of 20 minutes with 100 μl quenching buffer, containing 1% (vol/vol) hydrogen peroxide (Thermo Fisher Scientific) and 0.1% (vol/vol) sodium azide (Sigma-Aldrich) in phosphate-buffered saline. Cells were washed two times with wash buffer, incubated for 1 hour with 100 μl antibody blocking buffer from the kit and washed two times again. 40 μl of diluted antibody against phosphorylated ERK1/2 (1:500 from the FACE kit) was added and incubated overnight at 4° C. The phospho-ERK antibody has been raised against a synthetic phospho-peptide corresponding to residues Thr202 and Tyr204 of human ERK1 and Thr185 and Tyr187 of human ERK2. For the detection of total ERK, antibody against ERK1 and ERK2 (1:500 from the FACE kit) was added. The excessive primary antibody was washed out, and 100 μl diluted HRP-conjugated anti-rabbit IgG (1:2000 from the FACE kit) was added and incubated for 1 hour at room temperature. Secondary antibody was removed and cells were washed 3 times with wash buffer and twice with PBS. 50 μl per well of FACE chemiluminescent working solution was added. Chemiluminescence was measured on an Envision Multilabel reader.

[3] = bounds also given as pIC50 (>6, >7, >8), 60 min pre-incubation with compound, ATP 50 μM, read-out: IC50, B-Raf IMAP assay

T1 sequence (P15056 416-766, stated change not applied): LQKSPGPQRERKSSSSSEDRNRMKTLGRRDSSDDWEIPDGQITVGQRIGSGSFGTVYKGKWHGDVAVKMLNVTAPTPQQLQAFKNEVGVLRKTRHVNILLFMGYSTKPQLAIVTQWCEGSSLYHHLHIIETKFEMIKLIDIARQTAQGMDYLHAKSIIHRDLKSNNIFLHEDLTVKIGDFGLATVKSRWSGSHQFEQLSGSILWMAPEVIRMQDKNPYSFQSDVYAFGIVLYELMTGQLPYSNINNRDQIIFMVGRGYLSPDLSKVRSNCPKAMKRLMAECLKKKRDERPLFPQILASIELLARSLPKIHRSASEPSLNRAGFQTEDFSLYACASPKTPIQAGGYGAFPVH

Row | Compound | IC50 [1, 3] [nM] | IC50 [2] [nM] | IC50 [1] [nM]
1 | Cc1ccc(NC(=O)c2ccnc(N(C)C)c2)cc1NC(=O)c1cc2nccnc2s1 [Example 25, N-(5-(2-(dimethylamino)isonicotinamido)-2-methylphenyl)thieno[2,3-b]pyrazine-6-carboxamide] | < 100 |  | 
2 | Cc1ccc(NC(=O)c2cccc(C(C)(C)C#N)c2)cc1NC(=O)c1sc2ncc(Br)nc2c1N [Example 3, 7-amino-2-bromo-N-(5-(3-(2-cyanopropan-2-yl)benzamido)-2-methylphenyl)thieno[2,3-b]pyrazine-6-carboxamide] | < 100 | 100 to 1000 | 
3 | Cc1ccc(NC(=O)c2cccc(C(C)(C)C#N)c2)cc1NC(=O)c1cc2nc(Cl)cnc2s1 [Example 12, 2-chloro-N-(5-(3-(2-cyanopropan-2-yl)benzamido)-2-methylphenyl)thieno[2,3-b]pyrazine-6-carboxamide] | < 100 |  | 
4 | Cc1ccc(NC(=O)c2cccc(-n3cccn3)c2)cc1NC(=O)c1cc2nccnc2s1 [Example 34, N-(5-(3-(1H-pyrazol-1-yl)benzamido)-2-methylphenyl)thieno[2,3-b]pyrazine-6-carboxamide] | < 100 |  | 
5 | Cc1ccc(NC(=O)c2cccc(C(C)(C)C#N)c2)cc1NCc1cc2nccnc2s1 [Example 47, 3-(2-cyanopropan-2-yl)-N-(4-methyl-3-(thieno[2,3-b]pyrazin-6-ylmethylamino)phenyl)benzamide] | < 100 |  | 
6 | Cc1ccc(NC(=O)c2cccc(C(C)(C)C#N)c2)cc1NC(=O)c1cc2ncc(N(C)C)nc2s1 [Example 60, N-(5-(3-(2-cyanopropan-2-yl)benzamido)-2-methylphenyl)-3-(dimethylamino)thieno[2,3-b]pyrazine-6-carboxamide] | < 10 |  | 
7 | Cc1ccc(NC(=O)c2cccc(C(C)(C)C#N)c2)cc1NC(=O)c1cc2[nH]c(=O)cnc2s1 [Example 58, N-(5-(3-(2-cyanopropan-2-yl)benzamido)-2-methylphenyl)-2-oxo-1,2-dihydrothieno[2,3-b]pyrazine-6-carboxamide] | < 100 |  | 
8 | CCOc1cnc2cc(C(=O)Nc3cc(NC(=O)c4cccc(C(C)(C)C#N)c4)ccc3C)sc2n1 [Example 71, N-(5-(3-(2-cyanopropan-2-yl)benzamido)-2-methylphenyl)-3-ethoxythieno[2,3-b]pyrazine-6-carboxamide] | < 100 |  | 
9 | CCOc1cnc2sc(C(=O)Nc3cc(NC(=O)c4cccc(C(C)(C)C#N)c4)ccc3C)cc2n1 [Example 76, N-(5-(3-(2-cyanopropan-2-yl)benzamido)-2-methylphenyl)-2-ethoxythieno[2,3-b]pyrazine-6-carboxamide] | < 100 |  | 
10 | Cc1ccc(C(=O)Nc2cccc(C(F)(F)F)c2)cc1NC(=O)c1sc2nccnc2c1N [Example 74, 7-amino-N-(2-methyl-5-(3-(trifluoromethyl)phenylcarbamoyl)phenyl)thieno[2,3-b]pyrazine-6-carboxamide] | < 100 |  | 
11 | CNc1cnc2cc(C(=O)Nc3cc(NC(=O)c4cccc(C(C)(C)C#N)c4)ccc3C)sc2n1 [Example 59, N-(5-(3-(2-cyanopropan-2-yl)benzamido)-2-methylphenyl)-3-(methylamino)thieno[2,3-b]pyrazine-6-carboxamide] |  | 100 to 1000 | 
12 | Cc1ccc(NC(=O)c2cccc(C(C)(C)C#N)c2)cc1NC(=O)c1cc2nc(-c3cnc(N(C)C)nc3)cnc2s1 [Example 23, N-(5-(3-(2-cyanopropan-2-yl)benzamido)-2-methylphenyl)-2-(2-(dimethylamino)pyrimidin-5-yl)thieno[2,3-b]pyrazine-6-carboxamide] | < 100 |  | 
13 | Cc1ccc(NC(=O)c2cccc(-c3ccsc3)c2)cc1NC(=O)c1cc2nccnc2s1 [Example 57, N-(2-methyl-5-(3-(thiophen-3-yl)benzamido)phenyl)thieno[2,3-b]pyrazine-6-carboxamide] | < 100 |  | 
14 | Cc1ccc(NC(=O)c2cccc(C(C)(C)C#N)c2)cc1/N=C(\C#N)c1cc2nccnc2s1 [Example 56, (E)-N-(5-(3-(2-cyanopropan-2-yl)benzamido)-2-methylphenyl)thieno[2,3-b]pyrazine-6-carbimidoyl cyanide] |  |  | < 100
15 | Cc1ccc(NC(=O)c2cccc(C(C)(C)C#N)c2)cc1NC(=O)c1cc2nc(-c3cncnc3)cnc2s1 [Example 22, N-(5-(3-(2-cyanopropan-2-yl)benzamido)-2-methylphenyl)-2-(pyrimidin-5-yl)thieno[2,3-b]pyrazine-6-carboxamide] | < 10 |  | 
16 | Cc1ccc(NC(=O)c2ccc(CN3CCN(C)CC3)c(C(F)(F)F)c2)cc1NC(=O)c1cc2nccnc2s1 [Example 33, N-(2-methyl-5-(4-((4-methylpiperazin-1-yl)methyl)-3-(trifluoromethyl)benzamido)phenyl)thieno[2,3-b]pyrazine-6-carboxamide] | < 100 |  | 
17 | CC(C)(C#N)c1cccc(C(=O)Nc2ccc(C#N)c(NC(=O)c3cc4nccnc4s3)c2)c1 [Example 52, N-(2-cyano-5-(3-(2-cyanopropan-2-yl)benzamido)phenyl)thieno[2,3-b]pyrazine-6-carboxamide] | < 100 |  | 
18 | Cc1ccc(C(=O)Nc2cccc(C(F)(F)F)c2)cc1NC(=O)c1cc2nccnc2s1 [Example 48, N-(2-methyl-5-(3-(trifluoromethyl)phenylcarbamoyl)phenyl)-thieno[2,3-b]pyrazine-6-carboxamide] | < 100 |  | 
